# Peptide text beside a SMILES is read from it.
# Key:
# Assay type in all cases: cell-based
# [1] = test system: Pseudomonas syringae pv. syringae EPS94; assay: Antibacterial activity (MIC), in vitro growth inhibition; conditions: Table S1, MIC range
# Method: (§1) Erwinia amylovora PMV6076 (Institut National de la Recherche Agronomique, Angers, France), Pseudomonas syringae pv. syringae EPS94 (Institut de Tecnologia Agroalimentària, Universitat de Girona, Spain), and Xanthomonas axonopodis pv. vesicatoria 2133-2 (Instituto Valenciano de Investigaciones Agrarias, Valencia, Spain) were used as bacterial strains. They were stored and cultivated as previously described.
# (§2) The minimum inhibitory concentration (MIC) was analyzed as previously described at 0.8, 1.6, 3.1, 6.2, 12.5, 25 and 50 μM [20].
# [2] = test system: Xanthomonas axonopodis pv. vesicatoria 2133-2; conditions: Table S1, MIC range
# Method: as §1, §2
# [3] = test system: erythrocyte suspensions of human blood; assay: Hemolytic activity, hemoglobin release; conditions: human blood erythrocytes 5% v/v, absorbance 540 nm, percentage compared to melittin, three replicates; for Hemolysis (%) at 50 µM: peptide 50 μM (table prints 50 µM); for Hemolysis (%) at 125 µM: peptide 125 μM (table prints 125 µM)
# Method: The hemolytic activity of the compounds was evaluated at 50 and 125 μM by determining hemoglobin release from erythrocyte suspensions of human blood (5% v/v) (Oxoid) using absorbance at 540 nm, as previously described. Three replicates for each peptide concentration were used.
Compound,MIC Pss [1] [µM],MIC Xav [2] [µM],Hemolysis (%) at 50 µM [3] [%],Hemolysis (%) at 125 µM [3] [%]
"CC(C)C[C@@H]1NC(=O)[C@H](CCCCN)NC(=O)[C@H](Cc2c[nH]c3ccccc23)NC(=O)[C@H](CCCCN)NC(=O)[C@H](CC(C)C)NC(=O)[C@H](CCCCN)NC(=O)[C@H](CC(C)C)NC(=O)[C@H](CCCCN)NC(=O)[C@H](CCC(N)=O)NC(=O)[C@H](CCCCN)NC1=O [BPC016W, c(KLKLKWKLKQ)] (cyclo(KLKLKWKLKQ))",12.5 to 25,3.1 to 6.2,25,32
"CC(C)C[C@@H]1NC(=O)[C@H](Cc2c[nH]c3ccccc23)NC(=O)[C@H](CCCCN)NC(=O)[C@H](CCCCN)NC(=O)[C@H](CCCCN)NC(=O)[C@H](CCCCN)NC(=O)[C@H](CCCCN)NC(=O)[C@H](CCC(N)=O)NC(=O)[C@H](CC(C)C)NC(=O)[C@H](CC(C)C)NC1=O [BPC058W, c(KKKKKWLLLQ)] (cyclo(KKKKKWLLLQ))",12.5 to 25,25 to 50,2,3
"CC(C)C[C@@H]1NC(=O)[C@H](CCC(N)=O)NC(=O)[C@H](CC(C)C)NC(=O)[C@H](CCCCN)NC(=O)[C@H](CCCCN)NC(=O)[C@H](Cc2c[nH]c3ccccc23)NC(=O)[C@H](CCCCN)NC(=O)[C@H](CC(C)C)NC(=O)[C@H](CCCCN)NC(=O)[C@H](CCCCN)NC1=O [BPC092W, c(LKKLKWKKLQ)] (cyclo(KKLKWKKLQL))",6.2 to 12.5,3.1 to 6.2,2,3
"CC(C)C[C@@H]1NC(=O)[C@H](CCCCN)NC(=O)[C@H](CCCCN)NC(=O)[C@H](CCCCN)NC(=O)[C@H](CCCCN)NC(=O)[C@H](CCC(N)=O)NC(=O)[C@H](CCCCN)NC(=O)[C@H](CC(C)C)NC(=O)[C@H](CC(C)C)NC(=O)[C@H](Cc2c[nH]c3ccccc23)NC1=O [BPC100W, c(KKKKLWLLKQ)] (cyclo(KKKKLWLLKQ))",12.5 to 25,6.2 to 12.5,19,27
"CC(C)C[C@@H]1NC(=O)[C@H](CCCCN)NC(=O)[C@H](Cc2c[nH]c3ccccc23)NC(=O)[C@H](CC(C)C)NC(=O)[C@H](CCCCN)NC(=O)[C@H](CC(C)C)NC(=O)[C@H](CCCCN)NC(=O)[C@H](CCCCN)NC(=O)[C@H](CCC(N)=O)NC(=O)[C@H](CCCCN)NC1=O [BPC112W, c(KKLKLWKLKQ)] (cyclo(KKLKLWKLKQ))",3.1 to 6.2,6.2 to 12.5,3,4
"CC(C)C[C@@H]1NC(=O)[C@H](CCCCN)NC(=O)[C@H](Cc2c[nH]c3ccccc23)NC(=O)[C@H](CCCCN)NC(=O)[C@H](CCCCN)NC(=O)[C@H](CC(C)C)NC(=O)[C@H](CCCCN)NC(=O)[C@H](CC(C)C)NC(=O)[C@H](CCC(N)=O)NC(=O)[C@H](CCCCN)NC1=O [BPC124W, c(LKLKKWKLKQ)] (cyclo(KKWKLKQLKL))",6.2 to 12.5,3.1 to 6.2,2,2
"CC(C)C[C@@H]1NC(=O)[C@H](CCCCN)NC(=O)[C@H](CCCCN)NC(=O)[C@H](CCC(N)=O)NC(=O)[C@H](CCCCN)NC(=O)[C@H](CCCCN)NC(=O)[C@H](CCCCN)NC(=O)[C@H](Cc2c[nH]c3ccccc23)NC(=O)[C@H](CC(C)C)NC(=O)[C@H](CC(C)C)NC1=O [BPC148W, c(KKLLLWKKKQ)] (cyclo(KKKQKKLLLW))",12.5 to 25,12.5 to 25,1,2
"CC(C)C[C@@H]1NC(=O)[C@H](CCCCN)NC(=O)[C@H](CCC(N)=O)NC(=O)[C@H](CCCCN)NC(=O)[C@H](CCCCN)NC(=O)[C@H](CCCCN)NC(=O)[C@H](Cc2c[nH]c3ccccc23)NC(=O)[C@H](CC(C)C)NC(=O)[C@H](CC(C)C)NC(=O)[C@H](CCCCN)NC1=O [BPC150W, c(KLKLLWKKKQ)] (cyclo(KKKQKLKLLW))",12.5 to 25,6.2 to 12.5,17,32
"CC(C)C[C@@H]1NC(=O)[C@H](CCC(N)=O)NC(=O)[C@H](CCCCN)NC(=O)[C@H](CCCCN)NC(=O)[C@H](CCCCN)NC(=O)[C@H](Cc2c[nH]c3ccccc23)NC(=O)[C@H](CC(C)C)NC(=O)[C@H](CC(C)C)NC(=O)[C@H](CCCCN)NC(=O)[C@H](CCCCN)NC1=O [BPC152W, c(LKKLLWKKKQ)] (cyclo(KKKQLKKLLW))",6.2 to 12.5,6.2 to 12.5,1,3
"CC(C)C[C@@H]1NC(=O)[C@H](CCC(N)=O)NC(=O)[C@H](CCCCN)NC(=O)[C@H](CCCCN)NC(=O)[C@H](CCCCN)NC(=O)[C@H](Cc2c[nH]c3ccccc23)NC(=O)[C@H](CC(C)C)NC(=O)[C@H](CCCCN)NC(=O)[C@H](CC(C)C)NC(=O)[C@H](CCCCN)NC1=O [BPC156W, c(LKLKLWKKKQ)] (cyclo(KKKQLKLKLW))",6.2 to 12.5,3.1 to 6.2,1,2
"CC(C)C[C@@H]1NC(=O)[C@H](CCCCN)NC(=O)[C@H](CCC(N)=O)NC(=O)[C@H](CCCCN)NC(=O)[C@H](CCCCN)NC(=O)[C@H](CCCCN)NC(=O)[C@H](Cc2c[nH]c3ccccc23)NC(=O)[C@H](CCCCN)NC(=O)[C@H](CC(C)C)NC(=O)[C@H](CC(C)C)NC1=O [BPC160W, c(KLLLKWKKKQ)] (cyclo(KKKQKLLLKW))",6.2 to 12.5,6.2 to 12.5,3,6
"CC(C)C[C@@H]1NC(=O)[C@H](CCC(N)=O)NC(=O)[C@H](CCCCN)NC(=O)[C@H](CCCCN)NC(=O)[C@H](CCCCN)NC(=O)[C@H](Cc2c[nH]c3ccccc23)NC(=O)[C@H](CCCCN)NC(=O)[C@H](CC(C)C)NC(=O)[C@H](CC(C)C)NC(=O)[C@H](CCCCN)NC1=O [BPC162W, c(LKLLKWKKKQ)] (cyclo(KKKQLKLLKW))",6.2 to 12.5,3.1 to 6.2,57,56
"CC(C)C[C@@H]1NC(=O)[C@H](CCCCN)NC(=O)[C@H](CC(C)C)NC(=O)[C@H](CC(C)C)NC(=O)[C@H](CCC(N)=O)NC(=O)[C@H](CCCCN)NC(=O)[C@H](CCCCN)NC(=O)[C@H](CCCCN)NC(=O)[C@H](Cc2c[nH]c3ccccc23)NC(=O)[C@H](CCCCN)NC1=O [BPC164W, c(LLKLKWKKKQ)] (cyclo(KKKQLLKLKW))",6.2 to 12.5,6.2 to 12.5,6,6
"CC(C)C[C@@H]1NC(=O)[C@H](CCC(N)=O)NC(=O)[C@H](CCCCN)NC(=O)[C@H](CCCCN)NC(=O)[C@H](CCCCN)NC(=O)[C@H](Cc2c[nH]c3ccccc23)NC(=O)[C@H](CCCCN)NC(=O)[C@H](CCCCN)NC(=O)[C@H](CC(C)C)NC(=O)[C@H](CC(C)C)NC1=O [BPC166W, c(LLLKKWKKKQ)] (cyclo(KKKQLLLKKW))",6.2 to 12.5,6.2 to 12.5,1,1

# From publication PMC6150173, “Tryptophan-Containing Cyclic Decapeptides with Activity against Plant Pathogenic Bacteria” (Molecules : A Journal of Synthetic Chemistry and Natural …, 2017)
